Patent US20100075965A1, “PI3 KINASE INHIBITORS AND METHODS OF THEIR USE” (Novartis AG, priority 2006, published 2010)

What was measured:
[1] = test system: subcutaneous A2780 ovarian xenograft tumors; test: A2780 human ovarian xenograft model in nude mice; type: in vivo; conditions: 30 mg/kg daily p.o., day 6, p<0.001 vs vehicle (ANOVA)
Protocol: Female nude mice (6-8 weeks of age; Charles River) were implanted subcutaneously with A2780 (5×10^6 cells/mouse in 0.1 ml HBSS) cells into the right flank. […] Tumor volumes were measured (SE is the standard error of the mean).
Tumors from mice treated with vehicle were also harvested as controls.

[2] = test system: pSer473-Akt in A2780 cells; test: pSer473 Akt assay to monitor PI3K pathway in A2780 cells (MSD); type: cell-based; conditions: Homo sapiens; A2780 cells; read-out: A2780 pAKT 473 EC50
In short: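 EC50 is derived from percent inhibition of Akt Ser473 phosphorylation, normalised to total Akt and compared with DMSO-only wells, read by MSD immunoassay. Lysates came from A2780 cells plated overnight at 15,000/well and exposed to compound for one hour at 37 °C.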

With `CC(=O)Nc1cn2cc(-c3cnc(N)c(OC(C)C(F)(F)F)n3)ccc2n1` (centres unmarked) [Example 57, N-(6-(5-amino-6-(1,1,1-trifluoropropan-2-yloxy)pyrazin-2-yl)imidazo[1,2-a]pyridin-2-yl)acetamide] the tumor growth inhibition [1] was 79% and the EC50 [2] was < 1000 nM.
